Data published in the supplement of paper PMC10307832.

How the values were obtained:
Experiment in all cases: relative viability (nuclei count vs DMSO), 5 days (fraction); higher = more cells survive
[1] = system: SW 1573; conditions: first compound 20 µM
In short: (§1)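 Lung cancer cell lines were seeded in 1536-well plates and dosed by pin tool the next day, with either a single drug or a fixed anchor-drug dose combined with five library-drug doses (not always all listed) spaced in √10 steps. Five days later, one step fixed the cells and stained their nuclei (final 0.05% Triton X-100, 1% formaldehyde, 1 ug/ml Hoechst), and nuclei were counted on 4× images. Relative viability is the nuclei count in treated wells divided by the count in vehicle wells, and each value is the median of duplicate plates.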

[2] = system: HCC-366
In short: as §1

[3] = system: NCI-H2085
In short: as §1

[4] = system: NCI-H2405
In short: as §1

[5] = system: LCLC-103H
In short: as §1

[6] = system: NCI-H2347
In short: as §1

[7] = system: NCI-H2009
In short: as §1

[8] = system: NCI-H1355
In short: as §1

[9] = system: PC-14
In short: as §1

[10] = system: NCI-H1793
In short: as §1

[11] = system: EPLC-272H
In short: as §1

[12] = system: COR-L23
In short: as §1

For `Cc1csc(=NC2CCCCC2)n1/N=C/c1ccc(O)c(O)c1O` [MIM1] + N=C(N)NC(=N)NCCc1ccccc1 [Phenformin] (partner 250 µM), the relative viability [1] was 0.081, the relative viability ([2]; first compound 0.2 µM) was 0.598 and the relative viability ([2]; first compound 2 µM) was 0.574. It also gave a relative viability ([2]; first compound 6.325 µM) of 0.357, a relative viability ([2]; first compound 20 µM) of 0.0831 and a relative viability ([3]; first compound 0.2 µM) of 0.739. The relative viability ([3]; first compound 0.6325 µM) was 0.713, the relative viability ([3]; first compound 2 µM) was 0.788 and the relative viability ([3]; first compound 6.325 µM) was 0.589. It also gave a relative viability ([3]; first compound 20 µM) of 0.468, a relative viability ([4]; first compound 0.2 µM) of 0.402 and a relative viability ([4]; first compound 0.6325 µM) of 0.375. For the same molecule, the relative viability ([4]; first compound 2 µM) was 0.385, the relative viability ([4]; first compound 6.325 µM) was 0.386 and the relative viability ([4]; first compound 20 µM) was 0.371. The relative viability ([5]; first compound 0.2 µM) was 0.334, the relative viability ([5]; first compound 0.6325 µM) was 0.297 and the relative viability ([5]; first compound 2 µM) was 0.354. For the same molecule, the relative viability ([5]; first compound 6.325 µM) was 0.334, the relative viability ([5]; first compound 20 µM) was 0.291 and the relative viability ([6]; first compound 0.2 µM) was 0.435. For the same molecule, the relative viability ([6]; first compound 0.6325 µM) was 0.32, the relative viability ([6]; first compound 2 µM) was 0.387 and the relative viability ([6]; first compound 6.325 µM) was 0.39. For the same molecule, the relative viability ([6]; first compound 20 µM) was 0.288, the relative viability ([7]; first compound 0.2 µM) was 0.493 and the relative viability ([7]; first compound 0.6325 µM) was 0.479. For the same molecule, the relative viability ([7]; first compound 2 µM) was 0.45, the relative viability ([7]; first compound 6.325 µM) was 0.309 and the relative viability ([7]; first compound 20 µM) was 0.169. The relative viability ([8]; first compound 0.2 µM) was 0.46, the relative viability ([8]; first compound 0.6325 µM) was 0.351 and the relative viability ([8]; first compound 2 µM) was 0.443. It also gave a relative viability ([8]; first compound 6.325 µM) of 0.399, a relative viability ([8]; first compound 20 µM) of 0.274 and a relative viability ([9]; first compound 0.2 µM) of 0.662. The relative viability ([9]; first compound 0.6325 µM) was 0.575, the relative viability ([9]; first compound 2 µM) was 0.558 and the relative viability ([9]; first compound 6.325 µM) was 0.328. It also gave a relative viability ([9]; first compound 20 µM) of 0.237, a relative viability ([10]; first compound 0.2 µM) of 0.389 and a relative viability ([10]; first compound 2 µM) of 0.351. The relative viability ([10]; first compound 6.325 µM) was 0.373, the relative viability ([10]; first compound 20 µM) was 0.302 and the relative viability ([11]; first compound 0.2 µM) was 0.324. The relative viability ([11]; first compound 0.6325 µM) was 0.273, the relative viability ([11]; first compound 2 µM) was 0.279 and the relative viability ([11]; first compound 6.325 µM) was 0.184. For the same molecule, the relative viability ([11]; first compound 20 µM) was 0.104, the relative viability ([12]; first compound 0.2 µM) was 0.434 and the relative viability ([12]; first compound 0.6325 µM) was 0.437. The relative viability ([12]; first compound 2 µM) was 0.37, the relative viability ([12]; first compound 6.325 µM) was 0.373 and the relative viability ([12]; first compound 20 µM) was 0.187.
